Experimental data: the supplement of paper PMC10307832

Tests used:
Experiment in all cases: relative viability (nuclei count vs DMSO), 5 days (fraction); higher = more cells survive
SK-LU-1 = tested on: SK-LU-1
Summary of the method: (§1)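 A single step with final 0.05% Triton X-100, 1% formaldehyde and 1 ug/ml Hoechst fixed the cells and stained nuclei 5 days after treatment. Lung cancer cell lines in 1536-well plates had been treated by pin tool the day after seeding with one drug alone or a fixed anchor-drug dose plus five library-drug doses (not always all listed) in √10 steps, and nuclei were counted on 4× images. Relative viability is the ratio of nuclei in treated wells to nuclei in vehicle wells, taken as the median of duplicate plates.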

COR-L 105 = tested on: COR-L 105
Summary of the method: as §1

NCI-H1975 = tested on: NCI-H1975
Summary of the method: as §1

NCI-H1437 = tested on: NCI-H1437
Summary of the method: as §1

NCI-H23 = tested on: NCI-H23
Summary of the method: as §1

NCI-H727 = tested on: NCI-H727
Summary of the method: as §1

HCC-827 = tested on: HCC-827
Summary of the method: as §1

NCI-H460 = tested on: NCI-H460
Summary of the method: as §1

NCI-H1755 = tested on: NCI-H1755
Summary of the method: as §1

HOP-62 = tested on: HOP-62
Summary of the method: as §1

NCI-H2009 = tested on: NCI-H2009
Summary of the method: as §1

HCC-366 = tested on: HCC-366
Summary of the method: as §1

HARA = tested on: HARA
Summary of the method: as §1

A-427 = tested on: A-427
Summary of the method: as §1

LCLC-103H = tested on: LCLC-103H
Summary of the method: as §1

SW 1573 = tested on: SW 1573
Summary of the method: as §1

NCI-H1355 = tested on: NCI-H1355
Summary of the method: as §1

NCI-H1915 = tested on: NCI-H1915
Summary of the method: as §1

NCI-H1395 = tested on: NCI-H1395
Summary of the method: as §1

EMC-BAC-2 = tested on: EMC-BAC-2
Summary of the method: as §1

NCI-H1792 = tested on: NCI-H1792
Summary of the method: as §1

CC1(C)CCC(c2ccc(Cl)cc2)=C(CN2CCN(c3ccc(C(=O)NS(=O)(=O)c4ccc(N[C@H](CCN5CCOCC5)CSc5ccccc5)c(S(=O)(=O)C(F)(F)F)c4)cc3)CC2)C1 [Navitoclax] + Nc1ncn([C@H]2C[C@H](O)[C@@H](CO)O2)c(=O)n1 [Decitabine] (partner 2 µM)
relative viability (SK-LU-1; first compound 0.005 µM): 0.577
relative viability (SK-LU-1; first compound 0.01581 µM): 0.577
relative viability (SK-LU-1; first compound 0.05 µM): 0.389
relative viability (SK-LU-1; first compound 0.1581 µM): 0.609
relative viability (SK-LU-1; first compound 0.5 µM): 0.469
relative viability (COR-L 105; first compound 0.005 µM): 0.737
relative viability (COR-L 105; first compound 0.01581 µM): 0.89
relative viability (COR-L 105; first compound 0.05 µM): 0.6
relative viability (COR-L 105; first compound 0.1581 µM): 0.662
relative viability (COR-L 105; first compound 0.5 µM): 0.537
relative viability (NCI-H1975; first compound 0.005 µM): 0.432
relative viability (NCI-H1975; first compound 0.01581 µM): 0.392
relative viability (NCI-H1975; first compound 0.05 µM): 0.261
relative viability (NCI-H1975; first compound 0.1581 µM): 0.416
relative viability (NCI-H1975; first compound 0.5 µM): 0.29
relative viability (NCI-H1437; first compound 0.005 µM): 0.549
relative viability (NCI-H1437; first compound 0.01581 µM): 0.547
relative viability (NCI-H1437; first compound 0.05 µM): 0.619
relative viability (NCI-H1437; first compound 0.1581 µM): 0.519
relative viability (NCI-H1437; first compound 0.5 µM): 0.581
relative viability (NCI-H23; first compound 0.005 µM): 0.287
relative viability (NCI-H23; first compound 0.01581 µM): 0.32
relative viability (NCI-H23; first compound 0.05 µM): 0.307
relative viability (NCI-H23; first compound 0.1581 µM): 0.331
relative viability (NCI-H23; first compound 0.5 µM): 0.272
relative viability (NCI-H727; first compound 0.005 µM): 0.903
relative viability (NCI-H727; first compound 0.01581 µM): 1.08
relative viability (NCI-H727; first compound 0.05 µM): 0.839
relative viability (NCI-H727; first compound 0.1581 µM): 0.786
relative viability (NCI-H727; first compound 0.5 µM): 1.02
relative viability (HCC-827; first compound 0.005 µM): 0.364
relative viability (HCC-827; first compound 0.01581 µM): 0.325
relative viability (HCC-827; first compound 0.05 µM): 0.314
relative viability (HCC-827; first compound 0.1581 µM): 0.327
relative viability (HCC-827; first compound 0.5 µM): 0.31
relative viability (NCI-H460; first compound 0.005 µM): 0.481
relative viability (NCI-H460; first compound 0.01581 µM): 0.523
relative viability (NCI-H460; first compound 0.05 µM): 0.234
relative viability (NCI-H460; first compound 0.1581 µM): 0.411
relative viability (NCI-H460; first compound 0.5 µM): 0.444
relative viability (NCI-H1755; first compound 0.005 µM): 0.664
relative viability (NCI-H1755; first compound 0.01581 µM): 0.727
relative viability (NCI-H1755; first compound 0.05 µM): 0.611
relative viability (NCI-H1755; first compound 0.1581 µM): 0.677
relative viability (NCI-H1755; first compound 0.5 µM): 0.697
relative viability (HOP-62; first compound 0.005 µM): 0.22
relative viability (HOP-62; first compound 0.01581 µM): 0.21
relative viability (HOP-62; first compound 0.05 µM): 0.173
relative viability (HOP-62; first compound 0.1581 µM): 0.191
relative viability (HOP-62; first compound 0.5 µM): 0.205
relative viability (NCI-H2009; first compound 0.005 µM): 0.412
relative viability (NCI-H2009; first compound 0.01581 µM): 0.441
relative viability (NCI-H2009; first compound 0.05 µM): 0.382
relative viability (NCI-H2009; first compound 0.1581 µM): 0.342
relative viability (NCI-H2009; first compound 0.5 µM): 0.295
relative viability (HCC-366; first compound 0.005 µM): 0.34
relative viability (HCC-366; first compound 0.01581 µM): 0.4
relative viability (HCC-366; first compound 0.1581 µM): 0.332
relative viability (HCC-366; first compound 0.5 µM): 0.365
relative viability (HARA; first compound 0.005 µM): 0.463
relative viability (HARA; first compound 0.01581 µM): 0.736
relative viability (HARA; first compound 0.05 µM): 0.414
relative viability (HARA; first compound 0.1581 µM): 0.622
relative viability (HARA; first compound 0.5 µM): 0.466
relative viability (A-427; first compound 0.005 µM): 0.607
relative viability (A-427; first compound 0.01581 µM): 0.534
relative viability (A-427; first compound 0.05 µM): 0.517
relative viability (A-427; first compound 0.1581 µM): 0.521
relative viability (A-427; first compound 0.5 µM): 0.466
relative viability (LCLC-103H; first compound 0.005 µM): 0.701
relative viability (LCLC-103H; first compound 0.01581 µM): 0.879
relative viability (LCLC-103H; first compound 0.05 µM): 0.764
relative viability (LCLC-103H; first compound 0.1581 µM): 0.703
relative viability (LCLC-103H; first compound 0.5 µM): 0.698
relative viability (SW 1573; first compound 0.005 µM): 0.498
relative viability (SW 1573; first compound 0.01581 µM): 0.683
relative viability (SW 1573; first compound 0.05 µM): 0.387
relative viability (SW 1573; first compound 0.1581 µM): 0.386
relative viability (SW 1573; first compound 0.5 µM): 0.364
relative viability (NCI-H1355; first compound 0.005 µM): 0.338
relative viability (NCI-H1355; first compound 0.01581 µM): 0.372
relative viability (NCI-H1355; first compound 0.05 µM): 0.369
relative viability (NCI-H1355; first compound 0.1581 µM): 0.355
relative viability (NCI-H1355; first compound 0.5 µM): 0.347
relative viability (NCI-H1915; first compound 0.005 µM): 0.263
relative viability (NCI-H1915; first compound 0.01581 µM): 0.242
relative viability (NCI-H1915; first compound 0.05 µM): 0.274
relative viability (NCI-H1915; first compound 0.1581 µM): 0.247
relative viability (NCI-H1915; first compound 0.5 µM): 0.25
relative viability (NCI-H1395; first compound 0.005 µM): 0.706
relative viability (NCI-H1395; first compound 0.01581 µM): 0.701
relative viability (NCI-H1395; first compound 0.05 µM): 0.724
relative viability (NCI-H1395; first compound 0.1581 µM): 0.713
relative viability (NCI-H1395; first compound 0.5 µM): 0.699
relative viability (EMC-BAC-2; first compound 0.005 µM): 0.943
relative viability (EMC-BAC-2; first compound 0.01581 µM): 1.03
relative viability (EMC-BAC-2; first compound 0.05 µM): 0.963
relative viability (EMC-BAC-2; first compound 0.1581 µM): 0.915
relative viability (EMC-BAC-2; first compound 0.5 µM): 0.911
relative viability (NCI-H1792; first compound 0.005 µM): 0.488
relative viability (NCI-H1792; first compound 0.01581 µM): 0.644
relative viability (NCI-H1792; first compound 0.1581 µM): 0.525
relative viability (NCI-H1792; first compound 0.5 µM): 0.447
